The experiment addresses Type-2 angiotensin II receptor (Sus scrofa). The experiment is described as follows: Displacement of [125I]-Ang II from pig uterus membrane angiotensin II type 2 (AT2) receptor. In general terms: In a radioligand displacement assay an active substance lowers the binding of a labelled ligand.

pKi: −log10 of the molar value.

The term pKi denotes −log10 of the Ki, conventionally taken in molar units. Lower therefore signals a large Ki. The molecule `CCCCOC(=O)NS(=O)(=O)c1sc(CC(C)C)cc1-c1ccc(Cn2cnc3cccnc32)cc1` [butyl (5-isobutylthien-2-yl)sulfonylcarbamate derivative] had a negative logarithm of the Ki (pKi) of 8.15.
In the case of `CCCCOC(=O)NS(=O)(=O)c1sc(CC(C)C)cc1-c1ccc(Cn2ccnc2C)cc1` [butyl (5-isobutylthien-2-yl)sulfonylcarbamate derivative] it was 9.30.
In the case of `CCCCOC(=O)NS(=O)(=O)c1sc(CC(C)C)cc1-c1ccc(Cn2c(CC)nc3ccccc32)cc1` [butyl (5-isobutylthien-2-yl)sulfonylcarbamate derivative] it was 8.49; in that of `CCCCOC(=O)NS(=O)(=O)c1sc(CC(C)C)cc1-c1ccc(Cn2cnc3ccccc32)cc1` [butyl (5-isobutylthien-2-yl)sulfonylcarbamate derivative], 8.40; in that of `CCCCOC(=O)NS(=O)(=O)c1sc(CC(C)C)cc1-c1ccc(CC#N)cc1` [butyl (5-isobutylthien-2-yl)sulfonylcarbamate derivative], 7.15.

For the origin of these results see BindingDB's records for doi:10.1021/jm049715t (Uppsala University, 2004).
